These results are taken from PMC7096405, “Field evaluation of sex pheromones and binding specificity of pheromone binding protein 4 in Tryporyza intacta (Lepidoptera: Crambidae)” (Scientific Reports, 2020).

This experiment concerns the target TintPBP4 (pheromone binding protein 4). Put plainly: fluorescence competitive binding assay, displacement of 1-NPN. Further details: species or system Tryporyza intacta.

The molecule `CCCC/C=C/CCCCCCCCCC=O` [compound 1, E11-16: Ald] had a Ki of 2970 nM. This lies in the single-digit micromolar range.

For the molecule `CCCC/C=C\CCCCCCCCCC=O` [compound 2, Z11-16: Ald], the affinity, expressed as Ki, was 2510 nM. This Ki and that of the molecule before are within 1.5-fold of each other.

The Ki is the dissociation constant of the complex between target and ligand, obtained from inhibition or displacement. The low end stands for a stronger hold on the target, the high end for a looser hold on the target.
